Measurements: the CheMixHub viscosity set
± gives the uncertainty stated by the source.

Experiment: xn = mol fraction of the nth substance listed

Cc1ccccc1 + CO
viscosity (293.15 K, 101 kPa, x1 = 0.0405): 0.5903 ± 0.015 mPa·s | viscosity (293.15 K, 101 kPa, x1 = 0.0868): 0.5951 ± 0.015 mPa·s | viscosity (293.15 K, 101 kPa, x1 = 0.1401): 0.6009 ± 0.016 mPa·s | viscosity (293.15 K, 101 kPa, x1 = 0.2022): 0.6067 ± 0.016 mPa·s | viscosity (293.15 K, 101 kPa, x1 = 0.2755): 0.6121 ± 0.016 mPa·s | viscosity (293.15 K, 101 kPa, x1 = 0.3632): 0.6167 ± 0.016 mPa·s | viscosity (293.15 K, 101 kPa, x1 = 0.4701): 0.6194 ± 0.016 mPa·s | viscosity (293.15 K, 101 kPa, x1 = 0.6033): 0.6184 ± 0.016 mPa·s | viscosity (293.15 K, 101 kPa, x1 = 0.7739): 0.6098 ± 0.016 mPa·s | viscosity (293.15 K, 101 kPa, x2 = 0.2): 0.582 ± 0.012 mPa·s | viscosity (293.15 K, 101 kPa, x2 = 0.4): 0.601 ± 0.012 mPa·s | viscosity (293.15 K, 101 kPa, x2 = 0.6): 0.62 ± 0.012 mPa·s | viscosity (293.15 K, 101 kPa, x2 = 0.8): 0.623 ± 0.012 mPa·s | viscosity (293.16 K, 101 kPa, x2 = 0.7465): 0.6073 ± 0.016 mPa·s | viscosity (293.16 K, 101 kPa, x2 = 0.8178): 0.6149 ± 0.016 mPa·s | viscosity (293.16 K, 101 kPa, x2 = 0.9632): 0.6049 ± 0.016 mPa·s | viscosity (298.15 K, 101 kPa, x1 = 0.0405): 0.552 ± 0.014 mPa·s | viscosity (298.15 K, 101 kPa, x1 = 0.0868): 0.5572 ± 0.015 mPa·s | viscosity (298.15 K, 101 kPa, x1 = 0.1401): 0.5628 ± 0.015 mPa·s | viscosity (298.15 K, 101 kPa, x1 = 0.2022): 0.5679 ± 0.015 mPa·s | viscosity (298.15 K, 101 kPa, x1 = 0.2755): 0.573 ± 0.015 mPa·s | viscosity (298.15 K, 101 kPa, x1 = 0.3632): 0.5779 ± 0.015 mPa·s | viscosity (298.15 K, 101 kPa, x1 = 0.4701): 0.5803 ± 0.015 mPa·s | viscosity (298.15 K, 101 kPa, x1 = 0.6033): 0.5796 ± 0.015 mPa·s | viscosity (298.15 K, 101 kPa, x1 = 0.7739): 0.5809 ± 0.015 mPa·s | viscosity (298.15 K, 101 kPa, x2 = 0.0499): 0.551 ± 0.01 mPa·s | viscosity (298.15 K, 101 kPa, x2 = 0.0998): 0.547 ± 0.01 mPa·s | viscosity (298.15 K, 101 kPa, x2 = 0.1993): 0.54 ± 0.01 mPa·s | viscosity (298.15 K, 101 kPa, x2 = 0.2269): 0.5998 ± 0.0056 mPa·s | viscosity (298.15 K, 101 kPa, x2 = 0.2998): 0.541 ± 0.01 mPa·s | viscosity (298.15 K, 101 kPa, x2 = 0.3977): 0.6168 ± 0.0058 mPa·s | viscosity (298.15 K, 101 kPa, x2 = 0.4007): 0.55 ± 0.01 mPa·s | viscosity (298.15 K, 101 kPa, x2 = 0.4998): 0.557 ± 0.01 mPa·s | viscosity (298.15 K, 101 kPa, x2 = 0.5309): 0.6284 ± 0.0059 mPa·s | viscosity (298.15 K, 101 kPa, x2 = 0.6002): 0.562 ± 0.01 mPa·s | viscosity (298.15 K, 101 kPa, x2 = 0.6377): 0.6259 ± 0.0059 mPa·s | viscosity (298.15 K, 101 kPa, x2 = 0.7): 0.572 ± 0.01 mPa·s | viscosity (298.15 K, 101 kPa, x2 = 0.7252): 0.6143 ± 0.0058 mPa·s | viscosity (298.15 K, 101 kPa, x2 = 0.7983): 0.599 ± 0.0057 mPa·s | viscosity (298.15 K, 101 kPa, x2 = 0.8): 0.569 ± 0.01 mPa·s | viscosity (298.15 K, 101 kPa, x2 = 0.8606): 0.5847 ± 0.0056 mPa·s | viscosity (298.15 K, 101 kPa, x2 = 0.9): 0.561 ± 0.01 mPa·s | viscosity (298.15 K, 101 kPa, x2 = 0.9136): 0.5831 ± 0.0056 mPa·s | viscosity (298.15 K, 101 kPa, x2 = 0.9501): 0.555 ± 0.01 mPa·s | viscosity (298.15 K, 101 kPa, x2 = 0.9597): 0.5642 ± 0.0054 mPa·s | viscosity (298.16 K, 101 kPa, x2 = 0.4032): 0.5406 ± 0.014 mPa·s | viscosity (298.16 K, 101 kPa, x2 = 0.7442): 0.5644 ± 0.015 mPa·s | viscosity (298.16 K, 101 kPa, x2 = 0.9625): 0.5599 ± 0.015 mPa·s | viscosity (303 K, 101 kPa, x1 = 0.1006): 0.549 mPa·s | viscosity (303 K, 101 kPa, x1 = 0.2012): 0.599 mPa·s | viscosity (303 K, 101 kPa, x1 = 0.3009): 0.585 mPa·s | viscosity (303 K, 101 kPa, x1 = 0.3981): 0.578 mPa·s | viscosity (303 K, 101 kPa, x1 = 0.5016): 0.573 mPa·s | viscosity (303 K, 101 kPa, x1 = 0.6052): 0.566 mPa·s | viscosity (303 K, 101 kPa, x1 = 0.7001): 0.562 mPa·s | viscosity (303 K, 101 kPa, x1 = 0.8095): 0.559 mPa·s | viscosity (303 K, 101 kPa, x1 = 0.9011): 0.537 mPa·s | viscosity (303.15 K, 101.33 kPa, x1 = 0.0724): 0.588 ± 0.016 mPa·s | viscosity (303.15 K, 101.33 kPa, x1 = 0.0912): 0.531 ± 0.01 mPa·s | viscosity (303.15 K, 101.33 kPa, x1 = 0.1636): 0.588 ± 0.016 mPa·s | viscosity (303.15 K, 101.33 kPa, x1 = 0.2105): 0.539 ± 0.01 mPa·s | viscosity (303.15 K, 101.33 kPa, x1 = 0.2773): 0.542 ± 0.01 mPa·s | viscosity (303.15 K, 101.33 kPa, x1 = 0.3517): 0.569 ± 0.015 mPa·s | viscosity (303.15 K, 101.33 kPa, x1 = 0.3723): 0.54 ± 0.01 mPa·s | viscosity (303.15 K, 101.33 kPa, x1 = 0.4963): 0.529 ± 0.01 mPa·s | viscosity (303.15 K, 101.33 kPa, x1 = 0.5095): 0.544 ± 0.014 mPa·s | viscosity (303.15 K, 101.33 kPa, x1 = 0.6126): 0.539 ± 0.014 mPa·s | viscosity (303.15 K, 101.33 kPa, x1 = 0.6944): 0.515 ± 0.01 mPa·s | viscosity (303.15 K, 101.33 kPa, x1 = 0.7321): 0.532 ± 0.014 mPa·s | viscosity (303.15 K, 101.33 kPa, x1 = 0.8307): 0.513 ± 0.01 mPa·s | viscosity (303.15 K, 101.33 kPa, x1 = 0.8541): 0.527 ± 0.014 mPa·s | viscosity (303.15 K, 101.33 kPa, x1 = 0.888): 0.516 ± 0.01 mPa·s | viscosity (303.15 K, 101.33 kPa, x1 = 0.9511): 0.52 ± 0.01 mPa·s | viscosity (308.15 K, 101 kPa, x1 = 0.0405): 0.4855 ± 0.013 mPa·s | viscosity (308.15 K, 101 kPa, x1 = 0.0868): 0.4908 ± 0.013 mPa·s | viscosity (308.15 K, 101 kPa, x1 = 0.1401): 0.4965 ± 0.013 mPa·s | viscosity (308.15 K, 101 kPa, x1 = 0.2022): 0.5022 ± 0.013 mPa·s | viscosity (308.15 K, 101 kPa, x1 = 0.2755): 0.5079 ± 0.013 mPa·s | viscosity (308.15 K, 101 kPa, x1 = 0.3632): 0.5132 ± 0.013 mPa·s | viscosity (308.15 K, 101 kPa, x1 = 0.4701): 0.517 ± 0.013 mPa·s | viscosity (308.15 K, 101 kPa, x1 = 0.6033): 0.5188 ± 0.013 mPa·s | viscosity (308.15 K, 101 kPa, x1 = 0.7739): 0.5021 ± 0.013 mPa·s | viscosity (308.15 K, 101.33 kPa, x1 = 0.0912): 0.495 ± 0.007 mPa·s | viscosity (308.15 K, 101.33 kPa, x1 = 0.2105): 0.502 ± 0.007 mPa·s | viscosity (308.15 K, 101.33 kPa, x1 = 0.2773): 0.504 ± 0.007 mPa·s | viscosity (308.15 K, 101.33 kPa, x1 = 0.3723): 0.502 ± 0.007 mPa·s | viscosity (308.15 K, 101.33 kPa, x1 = 0.4963): 0.494 ± 0.007 mPa·s | viscosity (308.15 K, 101.33 kPa, x1 = 0.6944): 0.482 ± 0.007 mPa·s | viscosity (308.15 K, 101.33 kPa, x1 = 0.8307): 0.481 ± 0.007 mPa·s | viscosity (308.15 K, 101.33 kPa, x1 = 0.888): 0.483 ± 0.007 mPa·s | viscosity (308.15 K, 101.33 kPa, x1 = 0.9511): 0.488 ± 0.007 mPa·s | viscosity (313.15 K, 101.33 kPa, x1 = 0.0724): 0.5 ± 0.013 mPa·s | viscosity (313.15 K, 101.33 kPa, x1 = 0.1636): 0.503 ± 0.013 mPa·s | viscosity (313.15 K, 101.33 kPa, x1 = 0.3517): 0.487 ± 0.013 mPa·s | viscosity (313.15 K, 101.33 kPa, x1 = 0.5095): 0.485 ± 0.013 mPa·s | viscosity (313.15 K, 101.33 kPa, x1 = 0.6126): 0.48 ± 0.013 mPa·s | viscosity (313.15 K, 101.33 kPa, x1 = 0.7321): 0.475 ± 0.013 mPa·s | viscosity (313.15 K, 101.33 kPa, x1 = 0.8541): 0.464 ± 0.012 mPa·s | viscosity (318.15 K, 101 kPa, x1 = 0.0405): 0.4298 ± 0.011 mPa·s | viscosity (318.15 K, 101 kPa, x1 = 0.0868): 0.4372 ± 0.011 mPa·s | viscosity (318.15 K, 101 kPa, x1 = 0.1401): 0.4452 ± 0.012 mPa·s | viscosity (318.15 K, 101 kPa, x1 = 0.2022): 0.4538 ± 0.012 mPa·s | viscosity (318.15 K, 101 kPa, x1 = 0.2755): 0.4629 ± 0.012 mPa·s | viscosity (318.15 K, 101 kPa, x1 = 0.3632): 0.4726 ± 0.012 mPa·s | viscosity (318.15 K, 101 kPa, x1 = 0.4701): 0.4817 ± 0.013 mPa·s | viscosity (318.15 K, 101 kPa, x1 = 0.6033): 0.4892 ± 0.013 mPa·s | viscosity (318.15 K, 101 kPa, x1 = 0.7739): 0.4809 ± 0.012 mPa·s | viscosity (323.15 K, 101.33 kPa, x1 = 0.0724): 0.433 ± 0.012 mPa·s | viscosity (323.15 K, 101.33 kPa, x1 = 0.1636): 0.441 ± 0.012 mPa·s | viscosity (323.15 K, 101.33 kPa, x1 = 0.3517): 0.407 ± 0.011 mPa·s | viscosity (323.15 K, 101.33 kPa, x1 = 0.5095): 0.42 ± 0.011 mPa·s | viscosity (323.15 K, 101.33 kPa, x1 = 0.6126): 0.413 ± 0.011 mPa·s | viscosity (323.15 K, 101.33 kPa, x1 = 0.7321): 0.41 ± 0.011 mPa·s | viscosity (323.15 K, 101.33 kPa, x1 = 0.8541): 0.408 ± 0.011 mPa·s
